Data reported in ChEMBL document CHEMBL4680208, “Sulfone derivatives enter the cytoplasm of Candida albicans sessile cells” (Eur J Med Chem, 2020).
Values after ≈ are worked out from the molar mass of the structure shown. Active and inactive are the calls of the source. No cut-off for these calls is given here.

Key:
Candida albicans [1] = assay: Antifungal activity against Candida albicans 90028 assessed as fungal growth inhibition at 16 ug/ml measured after 18 hrs by microdilution method relative to control; assay type: functional; conditions: read-out: GI
Candida albicans [2] = assay: Antifungal activity against Candida albicans 90028 assessed as fungal growth inhibition at 8 ug/ml measured after 18 hrs by microdilution method relative to control; assay type: functional; conditions: read-out: GI
Candida albicans [3] = assay: Antifungal activity against Candida albicans 90028 assessed as fungal growth inhibition at 4 ug/ml measured after 18 hrs by microdilution method relative to control; assay type: functional; conditions: read-out: GI
Candida albicans [4] = assay: Antifungal activity against Candida albicans 90028 assessed as fungal growth inhibition at 2 ug/ml measured after 18 hrs by microdilution method relative to control; assay type: functional; conditions: read-out: GI
Candida albicans [5] = assay: Antifungal activity against Candida albicans 90028 assessed as fungal growth inhibition at 1 ug/ml measured after 18 hrs by microdilution method relative to control; assay type: functional; conditions: read-out: GI
Candida albicans [6] = assay: Antifungal activity against Candida albicans 90028 assessed as fungal growth inhibition at 0.5 ug/ml measured after 18 hrs by microdilution method relative to control; assay type: functional; conditions: read-out: GI
Candida albicans [7] = assay: Antifungal activity against Candida albicans 90028 assessed as fungal growth inhibition at 0.25 ug/ml measured after 18 hrs by microdilution method relative to control; assay type: functional; conditions: read-out: GI
Candida albicans [8] = assay: Antifungal activity against Candida albicans 90028 assessed as fungal growth inhibition at 0.125 ug/ml measured after 18 hrs by microdilution method relative to control; assay type: functional; conditions: read-out: GI
Candida albicans [9] = assay: Antifungal activity against Candida albicans 90028 assessed as fungal growth inhibition at 0.0625 ug/ml measured after 18 hrs by microdilution method relative to control; assay type: functional; conditions: read-out: GI
Candida albicans [10] = assay: Antifungal activity against Candida albicans 90028 assessed as fungal growth inhibition at 0.0313 ug/ml measured after 18 hrs by microdilution method relative to control; assay type: functional; conditions: read-out: GI
Candida albicans [11] = assay: Antifungal activity against Candida albicans 90028 assessed as fungal growth inhibition at 16 ug/ml measured after 48 hrs by microdilution method relative to control; assay type: functional; conditions: read-out: GI
Candida albicans [12] = assay: Antifungal activity against Candida albicans 90028 assessed as fungal growth inhibition at 8 ug/ml measured after 48 hrs by microdilution method relative to control; assay type: functional; conditions: read-out: GI
Candida albicans [13] = assay: Antifungal activity against Candida albicans 90028 assessed as fungal growth inhibition at 4 ug/ml measured after 48 hrs by microdilution method relative to control; assay type: functional; conditions: read-out: GI
Candida albicans [14] = assay: Antifungal activity against Candida albicans 90028 assessed as fungal growth inhibition at 2 ug/ml measured after 48 hrs by microdilution method relative to control; assay type: functional; conditions: read-out: GI
Candida albicans [15] = assay: Antifungal activity against Candida albicans 90028 assessed as fungal growth inhibition at 1 ug/ml measured after 48 hrs by microdilution method relative to control; assay type: functional; conditions: read-out: GI
Candida albicans [16] = assay: Antifungal activity against Candida albicans 90028 assessed as fungal growth inhibition at 0.5 ug/ml measured after 48 hrs by microdilution method relative to control; assay type: functional; conditions: read-out: GI
Candida albicans [17] = assay: Antifungal activity against Candida albicans 90028 assessed as fungal growth inhibition at 0.25 ug/ml measured after 48 hrs by microdilution method relative to control; assay type: functional; conditions: read-out: GI
Candida albicans [18] = assay: Antifungal activity against Candida albicans 90028 assessed as fungal growth inhibition at 0.125 ug/ml measured after 48 hrs by microdilution method relative to control; assay type: functional; conditions: read-out: GI
Candida albicans [19] = assay: Antifungal activity against Candida albicans 90028 assessed as fungal growth inhibition at 0.0625 ug/ml measured after 48 hrs by microdilution method relative to control; assay type: functional; conditions: read-out: GI
Candida albicans [20] = assay: Antifungal activity against Candida albicans 90028 assessed as fungal growth inhibition at 0.0313 ug/ml measured after 48 hrs by microdilution method relative to control; assay type: functional; conditions: read-out: GI
Candida albicans [21] = assay: Antifungal activity against Candida albicans 90028 assessed as fungal growth inhibition measured after 48 hrs by microdilution method; assay type: functional
Candida albicans [22] = assay: Fungicidal activity against Candida albicans 90028 preincubated for 48 hrs followed by plating on SD agar and measured after 48 hrs; assay type: functional; conditions: time 96 hrs
Candida albicans [23] = assay: Antifungal activity against Candida albicans 90028 infected in Galleria mellonella larvae assessed as increase in larvae survival at MFC measured 96 hrs post-infection relative to control; assay type: functional
Vero [24] = assay: Cytotoxicity against African green monkey Vero cells at 0.25 to 8 ug/ml after 18 hrs by XTT assay relative to control; assay type: cell-based; conditions: chlorocebus sabaeus, at 0.25 to 8 µg/mL, dose 0.25-8 µg/ml
[25] = Cytotoxicity against African green monkey Vero cells by XTT assay; assay type: cell-based; conditions: chlorocebus sabaeus
[26] = Cytotoxicity against human MRC5 cells by CellTiter 96 Aqueous One Solution Reagent based assay; assay type: cell-based
[27] = Toxicity in Galleria mellonella larvae assessed as survival at 16 ug/ml relative to control; conditions: at 16 µg/mL
Candida albicans [28] = assay: Antifungal activity against Candida albicans 90028 infected in Galleria mellonella larvae at 4 ug/ml by H and E staining based histological analysis; assay type: functional, organism-based; conditions: dose 4.0 µg/ml
Candida albicans [29] = assay: Induction of plasma membrane disruption in Candida albicans assessed as accidental type cell death at 4 ug/ml measured after 18 hrs by Annexin V-FITC/propidium iodide staining based flow cytometry (reference value: 1.74 +/- 1.37%); conditions: dose 4.0 µg/ml
Candida albicans [30] = assay: Anti-adhesive activity against Candida albicans assessed as reduction in […] adhesion to human TR146 cells at 4 ug/ml incubated for 2 hrs prior to cell infection and measured after 2 hrs by colony counting method relative to control; assay type: functional; set-up: scale not given: the % may be the effect or the level left; conditions: dose 4 µg/ml; time 4 hrs
[31] = Induction of adhesive activity against Candida albicans assessed as increase in […] adhesion to human TR146 cells at 2 ug/ml incubated for 2 hrs prior to cell infection and measured after 2 hrs by colony counting method relative to control; assay type: cell-based; conditions: tr146, 4 h, dose 2 µg/ml
Candida albicans [32] = assay: Antibiofilm activity against Candida albicans 90028 assessed as cell killing at 128 ug/ml by XTT assay relative to control; assay type: functional; conditions: dose 128 µg/ml
Candida albicans [33] = assay: Antibiofilm activity against Candida albicans 90028 assessed as increasing in cell killing by XTT assay; assay type: functional
[34] = Cytotoxicity against human TR146 cells assessed as induction of lysosomal membrane permeabilization at 16 ug/ml measured after 18 hrs by AO/propidium iodide staining based confocal laser scanning microscopy; assay type: cell-based; conditions: tr146, 18 h, dose 16 µg/ml
Candida albicans [35] = assay: Induction of morphological changes in Candida albicans biofilm infected in human TR146 cells at 16 ug/ml measured after 20 hrs by fluorescence microscopy based QCM-D analysis; assay type: functional, organism-based; conditions: dose 16.0 µg/ml
Vero [36] = assay: Cytotoxicity against African green monkey Vero cells at 0.25 to 512 ug/ml by XTT assay relative to control; assay type: cell-based; conditions: chlorocebus sabaeus, at 0.25 to 512 µg/mL, dose 0.25-512 µg/ml
Candida albicans [37] = assay: Antifungal activity against Candida albicans 90028 infected in Galleria mellonella larvae at 16 ug/ml by H and E staining based histological analysis; assay type: functional, organism-based; conditions: dose 16.0 µg/ml
Candida albicans [38] = assay: Induction of plasma membrane disruption in Candida albicans assessed as accidental type cell death at 0.25 ug/ml measured after 18 hrs by Annexin V-FITC/propidium iodide staining based flow cytometry (reference value: 1.74 +/- 1.37%); conditions: dose 0.25 µg/ml
Candida albicans [39] = assay: Anti-adhesive activity against Candida albicans assessed as reduction in […] adhesion to human TR146 cells at 0.25 ug/ml incubated for 2 hrs prior to cell infection and measured after 2 hrs by colony counting method relative to control; assay type: functional; set-up: scale not given: the % may be the effect or the level left; conditions: dose 0.25 µg/ml; time 4 hrs
[40] = Induction of adhesive activity against Candida albicans assessed as increase in […] adhesion to human TR146 cells at 0.125 ug/ml incubated for 2 hrs prior to cell infection and measured after 2 hrs by colony counting method relative to control; assay type: cell-based; conditions: tr146, 2 h, dose 0.125 µg/ml
Candida albicans [41] = assay: Antibiofilm activity against Candida albicans 90028 assessed as cell killing at 256 ug/ml by XTT assay relative to control; assay type: functional; conditions: dose 256 µg/ml
Vero [42] = assay: Cytotoxicity against African green monkey Vero cells at 0.25 to 16 ug/ml by XTT assay relative to control; assay type: cell-based; conditions: chlorocebus sabaeus, at 0.25 to 16 µg/mL, dose 0.25-16 µg/ml
Candida albicans [43] = assay: Induction of plasma membrane disruption in Candida albicans assessed as accidental type cell death at 8 ug/ml measured after 18 hrs by Annexin V-FITC/propidium iodide staining based flow cytometry (reference value: 1.74 +/- 1.37%); conditions: dose 8.0 µg/ml
Candida albicans [44] = assay: Anti-adhesive activity against Candida albicans assessed as reduction in […] adhesion to human TR146 cells at 8 ug/ml incubated for 2 hrs prior to cell infection and measured after 2 hrs by colony counting method relative to control; assay type: functional; set-up: scale not given: the % may be the effect or the level left; conditions: dose 8 µg/ml; time 4 hrs
[45] = Induction of adhesive activity against Candida albicans assessed as increase in […] adhesion to human TR146 cells at 4 ug/ml incubated for 2 hrs prior to cell infection and measured after 2 hrs by colony counting method relative to control; assay type: cell-based; conditions: tr146, 4 h, dose 4 µg/ml

| Compound | inhibition of growth at 16 µg/mL (Candida albicans [1]) | inhibition of growth at 8 µg/mL (Candida albicans [2]) | inhibition of growth at 4 µg/mL (Candida albicans [3]) | inhibition of growth at 2 µg/mL (Candida albicans [4]) | inhibition of growth at 1 µg/mL (Candida albicans [5]) | inhibition of growth at 0.5 µg/mL (Candida albicans [6]) | inhibition of growth at 0.25 µg/mL (Candida albicans [7]) | inhibition of growth at 0.125 µg/mL (Candida albicans [8]) | inhibition of growth at 0.0625 µg/mL (Candida albicans [9]) | inhibition of growth at 0.0313 µg/mL (Candida albicans [10]) | inhibition of growth at 16 µg/mL (Candida albicans [11]) | inhibition of growth at 8 µg/mL (Candida albicans [12]) | inhibition of growth at 4 µg/mL (Candida albicans [13]) | inhibition of growth at 2 µg/mL (Candida albicans [14]) | inhibition of growth at 1 µg/mL (Candida albicans [15]) | inhibition of growth at 0.5 µg/mL (Candida albicans [16]) | inhibition of growth at 0.25 µg/mL (Candida albicans [17]) | inhibition of growth at 0.125 µg/mL (Candida albicans [18]) | inhibition of growth at 0.0625 µg/mL (Candida albicans [19]) | inhibition of growth at 0.0313 µg/mL (Candida albicans [20]) | also measured |
| --- | --- | --- | --- | --- | --- | --- | --- | --- | --- | --- | --- | --- | --- | --- | --- | --- | --- | --- | --- | --- | --- |
| NNc1ccc(S(=O)(=O)C(Cl)(Cl)Br)cc1[N+](=O)[O-] | 99.9% | 99.9% | 99.7% | 100% | 99.8% | 99.7% | 98.9% | 99.2% | 99.4% | 99.7% | 100% | 100% | 100% | 99.9% | 99.2% | 99.2% | 98.9% | 98.9% | 98.9% | 98.7% | MIC90 (Candida albicans [21]): 2 µg/mL (≈ 5.28 µM); MFC (Candida albicans [22]): 4 µg/mL (≈ 10.6 µM); Activity (Candida albicans [23]): 63.57%; Activity (Vero [24]): 43.12%; CC50 [25]: ≥ 8 µg/mL; CC50 [26]: ≥ 16 µg/mL; survival [27]: 93%; Activity (Candida albicans [28]): Active; Activity (Candida albicans [29]): 79%; Activity (Candida albicans [30]): 100%; fold change (FC) [31]: 1.03; Activity (Candida albicans [32]): 40%; CC50 (Candida albicans [33]): ≤ 128 µg/mL; Activity [34]: Non-Toxic; Activity (Candida albicans [35]): Active |
| NNc1ccc(S(=O)(=O)C(F)(F)Cl)cc1[N+](=O)[O-] | 100% | 100% | 100% | 100% | 99.9% | 99.9% | 98.8% | 98.4% | 97.6% | 93.8% | 100% | 100% | 100% | 99.7% | 98.2% | 98.9% | 98.4% | 98.1% | 95.8% | 94.2% | MIC (Candida albicans [21]): inactive; MFC (Candida albicans [22]): 0.25 µg/mL (≈ 0.829 µM); Activity (Vero [36]): 93.43%; CC50 [26]: ≥ 16 µg/mL; survival [27]: 93%; Activity (Candida albicans [37]): inactive; Activity (Candida albicans [38]): 83.1%; Activity (Candida albicans [39]): 5.88%; fold change (FC) [40]: 11.76; Activity (Candida albicans [41]): 40%; CC50 (Candida albicans [33]): ≤ 128 µg/mL |
| NNc1ccc(S(=O)(=O)C(F)(F)I)cc1[N+](=O)[O-] | 100% | 100% | 100% | 100% | 100% | 99.7% | 100% | 73.7% | 100% | 88.2% | 100% | 100% | 74.9% | 72.8% | 72.9% | 70.1% | 69.5% | 22.9% | 15.5% | 22% | MIC90 (Candida albicans [21]): 8 µg/mL (≈ 20.4 µM); MFC (Candida albicans [22]): 8 µg/mL (≈ 20.4 µM); Activity (Vero [42]): 12.54%; CC50 [25]: ≥ 32 µg/mL; CC50 [26]: ≥ 16 µg/mL; survival [27]: 100%; Activity (Candida albicans [37]): inactive; Activity (Candida albicans [43]): 74.8%; Activity (Candida albicans [44]): 100%; fold change (FC) [45]: 13.78; Activity (Candida albicans [41]): 40%; CC50 (Candida albicans [33]): ≤ 64 µg/mL |
